Like-named read-outs stand apart in the source and are kept apart here. Marks after values point to notes of the source that are not given here.
Experiments:
GABAA receptor [1] = system: GABAA receptor; design: method as in Kim et al., 2000; details: i.c.v. infusion 1 pmol/10 μL/h for 7 days; cortex and CA3 sub-region of the hippocampus; ref Kim et al., 2000; cited from earlier work
mice = system: mice; design: method as in Hashimoto et al. (2007); details: ref Hashimoto et al. (2007), cited from earlier work; for effect on deficits in OR performance: repeated administration
Long-Evans rats [2] = system: Long-Evans rats; design: method as in Redrobe et al., 2012; details: same subPCP model; ref Redrobe et al., 2012; cited from earlier work
GABAB receptor = biological target: T1, GABAB receptor (Rattus norvegicus, UniProt Q9Z0U4); assay: Ex vivo autoradiography, GABAB receptor saturation binding ([3H]CGP54626), medial prefrontal cortex; details: rat medial prefrontal cortex; for GABAB receptors Bmax: [3H]CGP54626
T1 construct: 12 μm coronal sections were collected from an area ranging from approximately +4.2 mm to +2.3 mm anterior to Bregma; from tissue; host or cells: rat brain cryosections, medial prefrontal cortex (prelimbic and infralimbic)
Text: (§1) Rats used in ex vivo autoradiography (EVA) experiments were randomly assigned to one of four experimental groups characterized by either subchronic saline or PCP (as described above) along with either vehicle or vortioxetine-infused food (1.8 g vortioxetine/kg food weight, as described in the attentional set shifting task). On day 8 of PCP withdrawal, rats were anesthetized using CO2 and killed by decapitation. Brains were quickly and gently removed from the skull, flash frozen on powdered dry ice, and stored at -20°C until sectioning. Later, 12 μm coronal sections were collected from an area ranging from approximately +4.2 mm to +2.3 mm anterior to Bregma ([Paxinos and Watson, 1998]) using a cryostat (MicroM, Germany) and were thaw-mounted on glass microscope slides. This range of coronal slices was chosen in order to study the prelimbic and infralimbic subregions of the medial prefrontal cortex, given the importance of these regions in tests of executive function such as the attentional set shifting task ([Ng et al., 2007]). After the tissue mounted on the microscope slides had dried thoroughly (in order to reduce damage from freezing), slides were packed into slide boxes with desiccator pellets, and stored at -20°C for use in EVA saturation binding and competition experiments.
(§2) Each of the EVA procedures used in this study are variations on a similar theme. On the day of an experiment, slide-boxes were defrosted under a constant stream of air at room temperature until the boxes were dry and equilibrated with the environment in terms of temperature. This step was undertaken in order to ensure brain tissue was not damaged by frosting due to a sudden change in humidity. Prior to any binding experiments, slides were preincubated in the appropriate preincubation buffer and dried at room temperature. Subsequently, tissue was incubated in an assay buffer containing a radioligand appropriate for the receptor of interest, then rinsed in assay buffer, and dried overnight in a vacuum desiccator. Specific information on the contents of the preincubation buffers, assay buffers and other assay conditions are listed in Table 2. Finally, slides were opposed to a tritium-sensitive phosphor screen (Fuji imaging plate, GE Healthcare, Pittsburgh, PA, United States) for 5 days before being read in a phosphorimager (Typhoon FLA7000, GE Healthcare). Analysis methods are listed below under statistical analyses.
(§3) In saturation binding experiments, the concentration of the relevant radioligand in the assay buffer was systematically varied in order to determine the KD and Bmax of the receptor in question. At each radioligand concentration, the non-specific binding was determined on a separate slide by including a high concentration of a non-radioactive competitor ligand in the assay buffer along with the radioligand. For GABAA receptor saturation binding experiments, [^3H]muscimol was examined in quarter log steps ranging from 0.56 to 300 nM. For GABAB receptor saturation binding experiments, [^3H]CGP54626 was examined in quarter log steps ranging from 0.17 to 100 nM.
For saturation binding studies, the primary dependent measures were pKD and Bmax. First, a standard curve was generated by measuring optical intensity from a slide of tritium standards (American Radiolabeled Chemicals, St. Louis, MO, United States) included in the slide cassette during exposure. A linear regression was performed to determine the relationship between intensity and bound radioactivity (measured on the standards in units of μCi/g). Next, average intensity values from the non-specific bound condition for each concentration of radioligand was subtracted from intensity values from the total bound condition to produce a measure of specific binding for each radioligand concentration. These optical intensity values were transformed into bound radioactivity (expressed as nCi/mg) measurements by interpolation from the standard curve noted above. […]

GABAA receptor [3] = assay: Ex vivo autoradiography, GABAA receptor saturation binding ([3H]muscimol), medial prefrontal cortex; design: species or system rat; details: rat medial prefrontal cortex
Text: as §1, §2, §3
For saturation binding studies, the primary dependent measures were pKD and Bmax. […] A linear regression was performed to determine the relationship between intensity and bound radioactivity (measured on the standards in units of μCi/g). […] These optical intensity values were transformed into bound radioactivity (expressed as nCi/mg) measurements by interpolation from the standard curve noted above. […]

Long-Evans rats [4] = assay: Attentional set-shifting task (AST) in subchronic PCP-treated rats; assay type: in vivo, rat; details: for trials to criterion vs vehicle/vehicle or PCP/vehicle, EDR discrimination / trials to criterion vs PCP/vehicle, ED discrimination: subPCP-treated rats
Experimental: Subchronic PCP treatment: The subPCP administration regimen used in rats was conducted as described in ([Goetghebeur and Dias, 2009]), which is a reliable method for inducing deficits in our hands. Rats in the subPCP experiments received injections of 5 mg/mL PCP or vehicle (saline) s.c. at a 1 mL/kg injection volume twice per day for 7 days. […] The mouse subPCP regimen was conducted as described in [Pedersen et al. (2014)]. Briefly, mice received vehicle or PCP (1.3 mg/mL concentration, 10 mL/kg injection volume) s.c once per day for 14 days followed by a 7-day washout prior to experimentation.
Each test used male Long-Evans rats (Charles River, United States) aged 5–6 weeks when arriving at the research facility.
The attentional set-shifting test (AST) methods used here were adapted from [Goetghebeur and Dias (2009)]. The apparatus used for the AST test was a 44 cm × 64 cm × 30 cm black non-transparent Perspex test box, divided into 3 equal-sized areas (a starting area separated from a choice area subdivided in two). In the choice area, two 11 cm diameter terracotta pots were placed recessed into the box floor (with a 2 cm lip remaining above the floor) and separated by a divider. Odor (oils from The Body Shop®, United Kingdom) and media cues (not previously presented to the rats) were added to the pots.
Beginning on day 3 after the cessation of PCP administration, rats were subjected to a habituation period and trained to dig for a diet reward (half a Honey Loop cereal, Nestlé®) in terracotta pots filled with sawdust. On day 7 of PCP washout, rats were subjected to a single training session in which they were required to discriminate between two pots in order to find the reward. These discriminations were either based on differences in the digging media or the pot’s odor. On day 8 rats were presented with a series of increasingly difficult discriminations: a simple discrimination (SD), a compound discrimination (CD), two intra-dimensional shifts (ID1, ID2), an intra-dimensional shift reversal (ID2R), an extra-dimensional shift (ED) and an extra-dimensional shift reversal (EDR; see Table 1). Rats were required to meet a training criterion before moving on to a new discrimination type (for specifics, see Statistical Analysis, below).
The first trial of each discrimination stage was a discovery trial in which rats were allowed to dig in both pots, and to self-correct if digging in the wrong pot. Rats were only given one discovery trial. The discovery trial was included in the trials to criterion if the rat dug first in the correct pot, but not if the rat self-corrected an incorrect initial dig.
In the acute vortioxetine study, prior to the start of behavioral experiments on Day 8 of washout from PCP treatment, animals were randomly administered either 20% CD (Veh), […], or 64 mg/kg modafinil 30 min p.o. as described above (included as a positive control). Thus, the treatment groups in the acute vortioxetine study were as follows: Veh/Veh, PCP/Veh, PCP/1 mg/kg vortioxetine, PCP/3 mg/kg vortioxetine, PCP/10 mg/kg vortioxetine, or PCP/64 mg/kg modafinil.
Food dosing lasted from the first day of sub-chronic PCP administration and until the last day of the washout period (total of 14 days). After the end of the washout period where behavioral testing started, rats were fed with the same conditioned diet, however, under food restriction (∼11 g of diet per day per rat). In addition, some PCP-treated animals were fed vehicle food, but received acute injections of either 10 mg/kg vortioxetine, or 64 mg/kg modafinil, as described above. The treatment groups for the subchronic vortioxetine administration study were as follows: Veh/Veh, PCP/Veh, PCP/0.22 g/kg vortioxetine food, PCP/1.8 g/kg vortioxetine food, PCP/10 mg/kg vortioxetine 1 h s.c., or PCP/64 mg/kg 30 min p.o.
A third experiment was conducted to examine the effects of acute SERT inhibition or 5-HT3 receptor antagonism on subPCP-induced AST impairments. […]

sigma 1 receptors = biological target: sigma 1 receptors; design: method as in Sanchez et al., 2003; details: ref Sanchez et al., 2003; cited from earlier work
SERT = details: ref Pehrson et al., 2015; cited from earlier work
[5] = acute vortioxetine study, 64 mg/kg 30 min p.o., vs PCP/Veh
[6] = subchronic vortioxetine study, acute 64 mg/kg, p < 0.001

T1 sequence (Q9Z0U4 17-960 limits assumed): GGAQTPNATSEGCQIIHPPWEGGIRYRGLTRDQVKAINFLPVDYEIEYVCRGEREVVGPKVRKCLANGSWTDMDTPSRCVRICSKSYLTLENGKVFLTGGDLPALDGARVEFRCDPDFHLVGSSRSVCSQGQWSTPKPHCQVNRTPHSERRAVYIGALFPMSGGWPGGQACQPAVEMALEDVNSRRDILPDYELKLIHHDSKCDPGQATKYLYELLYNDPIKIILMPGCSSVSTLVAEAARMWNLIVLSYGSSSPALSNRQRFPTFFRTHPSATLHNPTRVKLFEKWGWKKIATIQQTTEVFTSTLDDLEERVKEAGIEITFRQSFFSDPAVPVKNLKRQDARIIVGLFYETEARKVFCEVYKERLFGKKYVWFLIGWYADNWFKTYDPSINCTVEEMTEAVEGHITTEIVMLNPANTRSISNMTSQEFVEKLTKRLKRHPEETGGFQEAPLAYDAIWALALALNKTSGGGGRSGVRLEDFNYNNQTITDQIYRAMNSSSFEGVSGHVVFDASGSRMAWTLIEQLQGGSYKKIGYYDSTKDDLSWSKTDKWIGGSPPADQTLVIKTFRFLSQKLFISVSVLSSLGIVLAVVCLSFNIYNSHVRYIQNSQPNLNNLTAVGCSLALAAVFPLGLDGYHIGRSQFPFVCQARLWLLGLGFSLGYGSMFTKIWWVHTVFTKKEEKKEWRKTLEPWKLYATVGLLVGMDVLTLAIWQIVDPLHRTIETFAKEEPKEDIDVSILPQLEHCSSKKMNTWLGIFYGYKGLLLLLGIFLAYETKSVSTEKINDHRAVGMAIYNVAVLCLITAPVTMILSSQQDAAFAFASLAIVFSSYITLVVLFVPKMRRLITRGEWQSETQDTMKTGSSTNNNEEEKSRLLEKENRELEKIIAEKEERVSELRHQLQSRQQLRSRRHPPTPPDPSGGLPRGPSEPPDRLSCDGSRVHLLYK
T1 sequence (O88871 41-940 partner): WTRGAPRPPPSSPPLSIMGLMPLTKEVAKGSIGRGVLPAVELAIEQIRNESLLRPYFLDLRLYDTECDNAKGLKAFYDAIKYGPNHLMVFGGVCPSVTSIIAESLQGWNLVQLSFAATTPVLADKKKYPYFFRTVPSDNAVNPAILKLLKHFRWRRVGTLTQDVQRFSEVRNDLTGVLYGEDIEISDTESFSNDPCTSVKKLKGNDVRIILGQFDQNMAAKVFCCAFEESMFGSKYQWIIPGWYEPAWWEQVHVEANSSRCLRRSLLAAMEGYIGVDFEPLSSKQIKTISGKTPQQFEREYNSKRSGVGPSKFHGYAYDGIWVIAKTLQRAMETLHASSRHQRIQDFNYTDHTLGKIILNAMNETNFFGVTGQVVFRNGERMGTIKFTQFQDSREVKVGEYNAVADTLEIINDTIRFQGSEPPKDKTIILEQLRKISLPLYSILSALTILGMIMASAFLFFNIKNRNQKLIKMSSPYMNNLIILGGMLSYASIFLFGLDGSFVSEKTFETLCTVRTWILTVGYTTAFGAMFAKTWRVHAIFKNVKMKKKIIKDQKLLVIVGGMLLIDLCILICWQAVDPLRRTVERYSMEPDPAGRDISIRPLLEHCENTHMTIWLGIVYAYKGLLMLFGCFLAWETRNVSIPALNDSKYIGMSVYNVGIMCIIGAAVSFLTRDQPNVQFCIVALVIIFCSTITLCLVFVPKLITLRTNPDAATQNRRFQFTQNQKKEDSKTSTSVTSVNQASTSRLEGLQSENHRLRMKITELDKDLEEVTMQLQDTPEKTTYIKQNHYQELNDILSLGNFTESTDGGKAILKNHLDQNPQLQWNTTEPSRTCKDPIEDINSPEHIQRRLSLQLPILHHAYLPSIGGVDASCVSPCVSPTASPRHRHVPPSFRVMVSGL

C[C@]12N[C@H](Cc3ccccc31)c1ccccc12 [MK-801]
GABAA receptor binding ([3H]-muscimol, [3H]-flunitrazepam) (GABAA receptor [1]): significant increase

CCCN(CCC)CCc1ccc(OC)c(OCCc2ccccc2)c1 [NE-100]
effect on fluvoxamine's reversal of OR deficits (mice; sigma1 receptor antagonist given with fluvoxamine): blocked this effect

FC(F)c1ncn2c1Cn1ncnc1-c1cc(Br)ccc1-2 [RO4938581]
attenuation of subPCP-induced impairment, ED discrimination of the AST (Long-Evans rats [2]): significantly attenuated | attenuation of subPCP-induced impairment, EDR discrimination of the AST (Long-Evans rats [2]): significantly attenuated

C[C@H](NC[C@H](O)CP(=O)(O)CC1CCCCC1)c1ccc(Cl)c(Cl)c1 [[^3H]CGP54626]
GABAB receptors Bmax (GABAB receptor; treatment group PCP/Veh): 414 ± 33^a fmol/mg | GABAB receptors Bmax (GABAB receptor; treatment group PCP/Vor): 342 ± 27^a,c fmol/mg | GABAB receptors Bmax (GABAB receptor; treatment group Veh/Veh): 541 ± 38 fmol/mg | GABAB receptors Bmax (GABAB receptor; treatment group Veh/Vor): 475 ± 34 fmol/mg | GABAB receptors pKD ([3H]CGP54626) (GABAB receptor; treatment group PCP/Veh): 8.7 ± 0.08 | GABAB receptors pKD ([3H]CGP54626) (GABAB receptor; treatment group PCP/Vor): 8.7 ± 0.06 | GABAB receptors pKD ([3H]CGP54626) (GABAB receptor; treatment group Veh/Veh): 8.6 ± 0.04 | GABAB receptors pKD ([3H]CGP54626) (GABAB receptor; treatment group Veh/Vor): 8.6 ± 0.08

NCc1cc(=O)[nH]o1 [[^3H]muscimol]
GABAA receptors pKD ([3H]muscimol) (GABAA receptor [3]; treatment group PCP/Veh): 7.8 ± 0.03 | GABAA receptors pKD ([3H]muscimol) (GABAA receptor [3]; treatment group PCP/Vor): 7.6 ± 0.03^a,b,c | GABAA receptors pKD ([3H]muscimol) (GABAA receptor [3]; treatment group Veh/Veh): 7.7 ± 0.03 | GABAA receptors pKD ([3H]muscimol) (GABAA receptor [3]; treatment group Veh/Vor): 7.8 ± 0.06

CN(C)CCC[C@@]1(c2ccc(F)cc2)OCc2cc(C#N)ccc21 [escitalopram]
trials to criterion vs vehicle/vehicle or PCP/vehicle, EDR discrimination (Long-Evans rats [4]; acute 0.5 mg/kg 1 h s.c.): did not differ | trials to criterion vs PCP/vehicle, ED discrimination (Long-Evans rats [4]; acute 0.5 mg/kg 1 h s.c., p < 0.001): significant reductions | Ki (sigma 1 receptors): ~0.1 µM

COCCCC/C(=N\OCCN)c1ccc(C(F)(F)F)cc1 [fluvoxamine]
effect on deficits in OR performance (mice): reversed deficits | effect on subPCP-induced impairments in OR performance (mice; single supra-pharmacological dose 20 mg/kg): improved | SERT occupancy ED80 (SERT): ≈ 1.8 mg/kg

NC(=O)C[S+]([O-])C(c1ccccc1)c1ccccc1 (centres unmarked) [modafinil, Modafinil]
reversal of subPCP-induced impairment, ED discrimination (trials to criterion) (Long-Evans rats [4]; [5]): significantly reversed | reversal of subPCP-induced impairment, EDR discrimination (trials to criterion) (Long-Evans rats [4]; [5]): neither acute vortioxetine nor modafinil significantly reversed | trials to criterion vs PCP/vehicle, ED discrimination (Long-Evans rats [4]; ondansetron/escitalopram study, 64 mg/kg 30 min p.o., p < 0.001): significant reductions | trials to criterion vs vehicle/vehicle or PCP/vehicle, EDR discrimination (Long-Evans rats [4]; ondansetron/escitalopram study, 64 mg/kg 30 min p.o., p < 0.05): significantly fewer trials | AST performance in subPCP-treated rats, ED (Long-Evans rats [4]; [6]): significantly improved performance | AST performance in subPCP-treated rats, EDR (Long-Evans rats [4]; [6]): significantly improved performance

Cc1nccn1CC1CCc2c(c3ccccc3n2C)C1=O (centres unmarked) [ondansetron]
trials to criterion vs vehicle/vehicle or PCP/vehicle, EDR discrimination (Long-Evans rats [4]; acute 1.6 mg/kg 1 h s.c.): did not differ | trials to criterion vs PCP/vehicle, ED discrimination (Long-Evans rats [4]; acute 1.6 mg/kg 1 h s.c., p < 0.05): significant reductions

Fc1ccc([C@@H]2CCNC[C@H]2COc2ccc3c(c2)OCO3)cc1 [paroxetine]
effect on deficits in OR performance (mice): but not paroxetine reversed deficits | effect on subPCP-induced impairments in OR performance (mice; single supra-pharmacological dose 10 mg/kg): improved
